Data reported in US7029680B1, “Delivery of immunogenic molecules vis HBsAg particles” (Yissum Research Development Company of the Hebrew …, priority 1998, dated 2006).

B1: IL-12 alone: cytokine IL-12 without HBsAg (control) (protein, UniProt P29459 23-219; P29460 23-328, looked up)
Interleukin-12 subunit alpha: RNLPVATPDPGMFPCLHHSQNLLRAVSNMLQKARQTLEFYPCTSEEIDHEDITKDKTSTVEACLPLELTKNESCLNSRETSFITNGSCLASRKTSFMMALCLSSIYEDLKMYQVEFKTMNAKLLMDPKRQIFLDQNMLAVIDELMQALNFNSETVPQKSSLEEPDFYKTKIKLCILLHAFRIRAVTIDRVMSYLNAS
Interleukin-12 subunit beta: IWELKKDVYVVELDWYPDAPGEMVVLTCDTPEEDGITWTLDQSSEVLGSGKTLTIQVKEFGDAGQYTCHKGGEVLSHSLLLLHKKEDGIWSTDILKDQKEPKNKTFLRCEAKNYSGRFTCWWLTTISTDLTFSVKSSRGSSDPQGVTCGAATLSAERVRGDNKEYEYSVECQEDSACPAAEESLPIEVMVDAVHKLKYENYTSSFFIRDIIKPDPPKNLQLKPLKNSRQVEVSWEYPDTWSTPHSYFSLTFCVQVQGKSKREKKDRVFTDKTSATVICRKNASISVRAQDRYYSSSWSEWASVPCS

Key:
OVA-specific cells (EG7) = assay: Anti-OVA CTL response, 51Cr release cytolytic assay after immunization; type: in vivo; conditions: F1 (H-2d/b) mice; lysis of EG7 vs EL4; FIG. 4B
Procedure: (§1) OVA/HBsAg particles, prepared as described above, were isolated, washed, and adjusted to the appropriate concentration for immunization. The following compositions were injected into F1 (H-2d/b) mice, each in 50 μl PBS (phosphate buffered saline): (a) 1 μg HBsAg particles (without adjuvants); (b) 100 μg native OVA; and (c) 1 μg HBsAg/OVA, as described in Section A above.
(§2) For evaluation of the CTL response, spleen or lymph nodes cells, obtained from immunized mice seven days to five weeks post-vaccination, were specifically restimulated in vitro for five days with syngeneic, irradiated OVA- or HBsAg-peptide-pulsed tumor cells. (The latter cells had been incubated in vitro with the recombinant HBsAg particles for 2 hours at 37° C.) The cells were harvested and tested in a 4-hour ^51Cr release cytolytic assay against antigen-bearing and non-antigen-bearing syngeneic targets. Lysis of cells specific for the HBsAg S protein (P815/S), or for OVA (EG7), was compared to that for nonspecific cells (P815 or EL4, respectively). The EG7 cells are EL4 cells which have been stably transfected with an expression plasmid encoding OVA.

OVA = assay: Anti-OVA humoral (serum antibody) response after immunization; type: in vivo; conditions: F1 (H-2d/b) mice, FIG. 4D
Procedure: as §1, §2

[1] = tested on: EL4 cells which had been pulsed with HBsAg; assay: Anti-HBsAg CTL response in 'nonresponder' mice, 51Cr release assay; type: in vivo, 'nonresponder' mice (H-2^b C57BL/6); conditions: nonresponder C57BL/6 mice; splenocytes restimulated with HBsAg-pulsed RBL5 cells; FIG. 6A-G
Procedure: To produce the data shown in FIG. 6, several cytokines were loaded into HBsAg particles, following a protocol such as outlined above for OVA, with incubation carried out at 45° C. It was estimated that approximately 10 ng of cytokine was incorporated per μg of HBsAg particles (about 1% incorporation) at this temperature. Groups of ‘nonresponder’ mice (H-2^b C57BL/6) were immunized with HBsAg particles, with and without incorporated cytokines, or with cytokine alone (FIG. 6G), in the amounts shown below: • A: 1 μg ‘naked’ HBsAg particles • B–F: 1 μg HBsAg/cytokine, where the cytokine was: • (b) IL-12, (c) IFN-γ, (d) IL-2, (e) IL-4, • (f) IL-1 β peptide • G: 1 μg IL-12 (control) • H: 1 μg HBsAg/IL-12
After 12 days, splenocytes from the immunized mice were restimulated in vitro for 5 days with HBsAg-pulsed, syngeneic irradiated RBL5 lymphoma cells. For control experiment H, the splenocytes were restimulated with non-pulsed, syngeneic RBL5 cells. The splenocytes (effector cells) were then cocultured with ^51Cr-labeled target cells, and the CTL response was measured by a standard ^51Cr release assay. The target cells were either non-pulsed EL4 cells (open circles in FIGS. 6A–G), or EL4 cells which had been pulsed with HBsAg (solid circles).

Molecule | anti-OVA CTL response (OVA-specific cells (EG7)) | anti-OVA humoral response (OVA) | anti-HBsAg CTL response [1]
ovalbumin [OVA alone, native ovalbumin protein, model antigen] | no CTL response and none | elicited a humoral response | –
B1 | – | – | no CTL response
